Experimental data reported in patent US10039747B2, “Tetrahydrocyclopentapyrrole derivatives and a method for preparing the same” (Daewoong Pharmaceutical Co., Ltd., priority 2013, dated 2018).

Target: T1, H+/K+-ATPase (Sus scrofa, UniProt P19156)
T1 construct: reaction buffer solution (60 mmol/l Tris-HCl buffer solution, pH 7.4) containing hog gastric vesicle; from tissue; host or cells: hog stomach (gastric vesicles, by centrifugation after Rabon et al. 1988)
Assay: Inhibition of proton pump (H+/K+-ATPase) activity in hog gastric vesicles
Assay type: biochemical
Conditions: K+ specific H+/K+-ATPase activity, pH 7.4, 37° C. for 40 minutes, malachite green
Procedure: 1) Preparation of Gastric Vesicles
Gastric vesicles were prepared from hog stomach by centrifugation (Edd C. Rabon et al., Preparation of Gastric H^+,K^+-ATPase, Methods in enzymology, vol. 157 Academic Press Inc., (1988), pp. 649-654). The protein contents of the prepared gastric vesicles were quantified with a Bicinchoninic Acid (BCA) kit.
2) Measurement of Effect of Inhibiting Proton Pump (H^+/K^+-ATPase) Activity
The effect of inhibiting proton pump activity by the compound of the present invention was measured in a 96-well plate. In this experiment, K^+ specific H^+/K^+-ATPase activity was calculated based on the difference between H^+/K^+-ATPase activity in the presence of K^+ ions and H^+/K^+-ATPase activity in the absence of K^+ ions. In the 96-well plate, to negative and positive control groups, 0.5% dimethylsulfoxide (DMSO) in buffer was added, and to the test groups, the compound of the present invention was added. All the analyses were conducted at room temperature with the reaction volume of 100 μl. To a reaction buffer solution (60 mmol/l Tris-HCl buffer solution, pH 7.4) containing hog gastric vesicle, DMSO and each concentration of compound were added, and then, 10 μl of a 10 mmol/l adenosine triphosphate tris buffer solution (60 mmol/l Tris-HCl buffer solution, pH 7.4) was added to initiate an enzyme reaction. The enzyme reaction was conducted at 37° C. for 40 minutes, 50 μl of a malachite green solution (0.12% malachite green solution, 5.8% ammonium molybdate and 11% tween 20 were mixed at a ratio of 100:67:2 in 6.2 N sulfuric acid) was added to stop the reaction, and 50 μl of 15.1% sodium citrate was added. During the reaction, the amount of monophosphate (Pi) was measured at 570 nm using micro plate reader (FLUOstar Omega, BMG Company). Inhibition rate (%) was measured from the activity values of the control groups and the activity values of various concentrations of the test compound, and IC50 of the test compound was calculated from each % inhibition value of the compound using Logistic 4-parameter function of Sigmaplot 8.0 program.

T1 sequence (P19156 2-1034 limits assumed): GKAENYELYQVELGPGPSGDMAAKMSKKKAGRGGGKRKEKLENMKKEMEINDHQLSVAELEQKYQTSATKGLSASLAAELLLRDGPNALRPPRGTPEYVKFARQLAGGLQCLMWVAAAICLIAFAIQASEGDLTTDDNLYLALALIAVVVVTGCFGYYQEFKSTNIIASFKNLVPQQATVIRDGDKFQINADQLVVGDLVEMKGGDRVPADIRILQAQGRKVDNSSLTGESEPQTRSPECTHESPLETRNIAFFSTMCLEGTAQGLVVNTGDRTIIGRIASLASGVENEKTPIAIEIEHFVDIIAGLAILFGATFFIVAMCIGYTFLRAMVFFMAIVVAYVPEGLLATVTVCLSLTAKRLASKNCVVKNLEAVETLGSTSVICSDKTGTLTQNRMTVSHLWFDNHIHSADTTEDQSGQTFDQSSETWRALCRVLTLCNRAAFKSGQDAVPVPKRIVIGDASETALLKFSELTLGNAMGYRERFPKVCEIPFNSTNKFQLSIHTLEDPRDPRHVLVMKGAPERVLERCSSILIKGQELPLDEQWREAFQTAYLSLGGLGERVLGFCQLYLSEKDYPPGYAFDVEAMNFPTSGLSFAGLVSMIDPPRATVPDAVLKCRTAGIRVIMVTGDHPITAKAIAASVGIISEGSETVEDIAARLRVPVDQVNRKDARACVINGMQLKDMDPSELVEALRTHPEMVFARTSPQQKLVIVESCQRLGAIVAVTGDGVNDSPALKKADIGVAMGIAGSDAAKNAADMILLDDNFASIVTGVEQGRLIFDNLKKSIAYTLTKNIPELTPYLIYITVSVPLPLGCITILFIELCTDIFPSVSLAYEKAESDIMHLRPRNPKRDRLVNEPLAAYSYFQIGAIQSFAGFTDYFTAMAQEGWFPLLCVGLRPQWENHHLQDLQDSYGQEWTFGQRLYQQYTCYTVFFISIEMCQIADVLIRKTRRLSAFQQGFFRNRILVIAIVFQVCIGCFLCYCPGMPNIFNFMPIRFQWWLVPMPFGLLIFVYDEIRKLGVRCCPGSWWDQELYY
T1 sequence (P18434 whole entry partner): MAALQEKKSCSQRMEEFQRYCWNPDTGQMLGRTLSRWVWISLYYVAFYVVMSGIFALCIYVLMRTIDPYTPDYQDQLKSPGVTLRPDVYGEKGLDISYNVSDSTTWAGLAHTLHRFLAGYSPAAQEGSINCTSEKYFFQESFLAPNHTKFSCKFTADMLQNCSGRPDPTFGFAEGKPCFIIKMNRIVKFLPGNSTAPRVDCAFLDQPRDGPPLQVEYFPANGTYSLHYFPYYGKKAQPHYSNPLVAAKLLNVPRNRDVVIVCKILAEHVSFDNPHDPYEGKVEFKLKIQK

| SMILES | IC50 [nM] |
| --- | --- |
| CNC1CCc2c1cn(S(=O)(=O)c1ccc(F)cc1)c2-c1cc(Cl)ccc1Cl (centres unmarked) [Example 61, 1-(2,5-dichlorophenyl)-2-((4-fluorophenyl)sulfonyl)-N-methyl-2,4,5,6-tetrahydrocyclopenta[c]pyrrol-4-amine] | 770 |
| CNC1CCc2c1cn(S(=O)(=O)c1ccc(-c3ccccc3)cc1)c2-c1ccccc1F (centres unmarked) [Example 62, 2-([1,1′-biphenyl]-4-ylsulfonyl)-1-(2-fluorophenyl)-N-methyl-2,4,5,6-tetrahydrocyclopenta[c]pyrrol-4-amine] | 8750 |
| CNC1CCc2c1cn(S(=O)(=O)c1cccc(Cl)c1C)c2-c1ccccc1F (centres unmarked) [Example 63, 2-((3-chloro-2-methylphenyl)sulfonyl)-1-(2-fluorophenyl)-N-methyl-2,4,5,6-tetrahydrocyclopenta[c]pyrrol-4-amine] | 610 |
| CNC1CCc2c1cn(S(=O)(=O)c1cccc(Cl)c1Cl)c2-c1ccccc1F (centres unmarked) [Example 64, 2-((2,3-dichlorophenyl)sulfonyl)-1-(2-fluorophenyl)-N-methyl-2,4,5,6-tetrahydrocyclopenta[c]pyrrol-4-amine] | 840 |
| CNC1CCc2c1cn(S(=O)(=O)c1ccc(F)cc1F)c2-c1ccccc1F (centres unmarked) [Example 65, 2-((2,4-difluorophenyl)sulfonyl)-1-(2-fluorophenyl)-N-methyl-2,4,5,6-tetrahydrocyclopenta[c]pyrrol-4-amine] | 940 |
| CNC1CCc2c1cn(S(=O)(=O)c1ccc(F)cc1Cl)c2-c1ccccc1F (centres unmarked) [Example 66, 2-((2-chloro-4-fluorophenyl)sulfonyl)-1-(2-fluorophenyl)-N-methyl-2,4,5,6-tetrahydrocyclopenta[c]pyrrol-4-amine] | 500 |
| CNC1CCc2c1cn(S(=O)(=O)c1ccc(C#N)cc1Cl)c2-c1ccccc1F (centres unmarked) [Example 67, 3-chloro-4-((1-(2-fluorophenyl)-4-(methylamino)-5,6-dihydrocyclopenta[c]pyrrol-2(4H)-yl)sulfonyl)benzonitrile] | 1260 |
| CNC1CCc2c1cn(S(=O)(=O)c1ccc(OC(F)(F)F)cc1Cl)c2-c1ccccc1F (centres unmarked) [Example 68, 2-((2-chloro-4-(trifluoromethoxy)phenyl)sulfonyl)-1-(2-fluorophenyl)-N-methyl-2,4,5,6-tetrahydrocyclopenta[c]pyrrol-4-amine] | 840 |
| CNC1CCc2c1cn(S(=O)(=O)c1ccc(C(F)(F)F)cc1Cl)c2-c1ccccc1F (centres unmarked) [Example 69, 2-((2-chloro-4-(trifluoromethyl)phenyl)sulfonyl)-1-(2-fluorophenyl)-N-methyl-2,4,5,6-tetrahydrocyclopenta[c]pyrrol-4-amine] | 1620 |
| CNC1CCc2c1cn(S(=O)(=O)c1cc(Cl)ccc1Cl)c2-c1ccccc1F (centres unmarked) [Example 70, 2-((2,5-dichlorophenyl)sulfonyl)-1-(2-fluorophenyl)-N-methyl-2,4,5,6-tetrahydrocyclopenta[c]pyrrol-4-amine] | 430 |
| CNC1CCc2c1cn(S(=O)(=O)c1cc(Cl)ccc1Cl)c2-c1ccc(F)cc1F (centres unmarked) [Example 71, 2-((2,5-dichlorophenyl)sulfonyl)-1-(2,4-difluorophenyl)-N-methyl-2,4,5,6-tetrahydrocyclopenta[c]pyrrol-4-amine] | 670 |
| CNC1CCc2c1cn(S(=O)(=O)c1cc(Cl)ccc1Cl)c2-c1ccc(C)cc1F (centres unmarked) [Example 72, 2-((2,5-dichlorophenyl)sulfonyl)-1-(2-fluoro-4-methylphenyl)-N-methyl-2,4,5,6-tetrahydrocyclopenta[c]pyrrol-4-amine] | 480 |
| CNC1CCc2c1cn(S(=O)(=O)c1cc(Cl)ccc1Cl)c2-c1cc(Cl)ccc1Cl (centres unmarked) [Example 73, 1-(2,5-dichlorophenyl)-2-((2,5-dichlorophenyl)sulfonyl)-N-methyl-2,4,5,6-tetrahydrocyclopenta[c]pyrrol-4-amine] | 670 |
| CNC1CCc2c1cn(S(=O)(=O)c1cc(C(F)(F)F)ccc1Cl)c2-c1ccccc1F (centres unmarked) [Example 74, 2-((2-chloro-5-(trifluoromethyl)phenyl)sulfonyl)-1-(2-fluorophenyl)-N-methyl-2,4,5,6-tetrahydrocyclopenta[c]pyrrol-4-amine] | 520 |
